Where a name gives a salt, the structure may show the parent alone.
system: compound 48/80-induced lethality in rats; test: Protection of rats from compound 48/80-induced lethality; format: in vivo, rat (male, inbred Wistar strain); conditions: Rattus norvegicus, 4 h, read-out: Compound 48/80 lethality test in rats-ED50
Excerpt: PROTECTION OF RATS FROM COMPOUND 48/80-INDUCED LETHALITY
Compound 48/80, a mixture of oligomers obtained by condensation of 4-methoxy-N-methylbenzeneethanamine and formaldehyde has been described as a potent histamine releasing agent (Int. Arch. Allergy, 13, 336 (1958)). The protection from compound 48/80-induced lethal circulatory collapse appears to be a simple way of evaluating quantitatively the antihistaminic activity of test compounds. Male rats of an inbred Wistar strain, weighing 240-260 g were used in the experiment. After overnight starvation the rats were transferred to conditioned laboratories (temp.=21±1° C., relative humidity=65±5%). The rats were treated subcutaneously or orally with a test compound or with the solvent (NaCl solution, 0.9%). One hour after treatment there was injected intravenously compound 48/80, freshly dissolved in water, at a dose of 0.5 mg/kg (0.2 ml/100 g of body weight). In control experiments, wherein 250 solvent-treated animals were injected with the standard dose of compound 48/80, not more than 2.8% of the animals survived after 4 hours. Survival after 4 hours is therefore considered to be a safe criterion of a protective effect of drug administration.
Said ED50 -values are the values in mg/kg body weight at which the tested compounds protect 50% of the tested animals against compound 48/80-induced lethality.

N=C(NCCN1CCC(Nc2nc3ccccc3n2Cc2ccc(F)cc2)CC1)N[N+](=O)[O-] [Compound 23, N-[2-[4-[[1-[(4-fluorophenyl)methyl]-1H-benzimidazol-2-yl]amino]-1-piperidinyl]ethyl]-N'-nitroguanidine] gave an ED50 of 0.08 mg/kg.

same assay, conditions: Rattus norvegicus; test compound subcutaneously or orally (route of each value not given) 1 hour before compound 48/80 0.5 mg/kg intravenously; dose protecting 50% of animals, survival after 4 hours; read-out: Compound 48/80 lethality test in rats-ED50

First: NC(=O)Nc1ccc(CCN2CCC(Nc3nc4ccccc4n3Cc3ccc(F)cc3)CC2)cc1 [Compound 56]
Second: CNC(=O)Nc1ccc(CCN2CCC(Nc3nc4ccccc4n3Cc3ccc(F)cc3)CC2)cc1 [Compound 57, N-[4-[2-[4-[[1-[(4-fluorophenyl)methyl]-1H-benzimidazol-2-yl]amino]-1-piperidinyl]ethyl]phenyl]-N'methylurea]
The ED50 of the first is 2-fold lower: 0.04 mg/kg for the first, 0.08 mg/kg for the second.

Compared with O.O=c1oc2ccccc2cc1CCN1CCC(Nc2nc3cccnc3n2Cc2ccc(F)cc2)CC1 [Compound 16, 3-[2-[4-[[3-[(4-fluorophenyl)methyl]-3H-imidazo [4,5-b]pyridin-2-yl]-amino]-1-piperidinyl]ethyl]-2H-1-benzopyran-2-one monohydrate], O=c1oc2ccccc2cc1CCN1CCC(Nc2nc3ccccc3n2Cc2ccc(F)cc2)CC1 [Compound 12, 3-[2-[4-[[1-[(4-fluorophenyl)methyl]-1H-benzimidazol-2-yl]amino]-1-piperidinyl]ethyl]-2H-1-benzopyran-2-one] is 4-fold higher in ED50: 0.04 mg/kg for the first, 0.16 mg/kg for the second.

First: COc1ccc(CCN2CCC(Nc3nc4cnccc4n3Cc3ccc(F)cc3)CC2)cc1 [Compound 3, 1-[(4-fluorophenyl)methyl]-N-[1-[2-(4-methoxyphenyl)ethyl]-4-piperidinyl]-1H-imidazo[4,5-c]pyridin-2-amine]
Second: COc1ccc(CCN2CCC(Nc3nc4ncccc4n3Cc3ccc(F)cc3)CC2)cc1 [Compound 2, 1-[(4-fluorophenyl)methyl]-N-[1-[2-(4-methoxyphenyl)ethyl]-4-piperidinyl]-1H-imidazo[4,5-b]pyridin-2-amine]
The ED50 of the first is 2-fold higher: 0.16 mg/kg for the first, 0.08 mg/kg for the second.

O=c1oc2ccccc2cc1CCN1CCC(Nc2nc3ccccc3n2Cc2cscn2)CC1 [Compound 6, 3-[2-[4-[[1-(4-thiazolylmethyl)-1H-benzimidazol-2-yl]amino]-1-piperidinyl]ethyl]-2H-1-benzopyran-2-one dihydrochloride.sesquihydrate] and O=c1oc2ccccc2cc1CCN1CCC(Nc2nc3ccccc3n2Cc2cccs2)CC1 [Compound 8, 3-[2-[4-[[1-(2-thienylmethyl)-1H-benzimidazol-2-yl]amino]-1-piperidinyl]ethyl]-2H-1-benzopyran-2-one] are the same in ED50: 0.16 mg/kg for the first, 0.16 mg/kg for the second.

Going from O.O=c1oc2ccccc2cc1CCN1CCC(Nc2nc3ccccc3n2Cc2ccco2)CC1 [Compound 14, 3-[2-[4-[[1-(2-furanylmethyl)-1H-benzimidazol-2-yl]amino]-1-piperidinyl]ethyl]-2H-1-benzopyran-2-one monohydrate] to O=c1oc2ccccc2cc1CCN1CCC(Nc2nc3cccnc3n2Cc2ccccn2)CC1 [Compound 7, 3-[2-[4-[[3-(2-pyridinylmethyl)-3H-imidazo[4,5-b]pyridin-2-yl]amino]-1-piperidinyl]ethyl]-2H-1benzopyran-2-one trihydrochloride.dihydrate], the ED50 falls from 0.08 mg/kg to 0.04 mg/kg (2-fold).

CN(C)C(=NC#N)NCCN1CCC(Nc2nc3ccccc3n2Cc2ccc(F)cc2)CC1 [Compound 25] and CN(C)C(=S)NCCN1CCC(Nc2nc3ccccc3n2Cc2ccc(F)cc2)CC1 [Compound 31] are the same in ED50: 0.08 mg/kg for the first, 0.08 mg/kg for the second.

Compared with CNC(=O)N1CCC(N2CCC(Nc3nc4ccccc4n3Cc3ccc(F)cc3)CC2)CC1 [Compound 36, 4-[[1-(4-fluorophenyl)methyl]-1H-benzimidazol-2-ylamino]-N-methyl-[1,4'-bipiperidine]-1'-carboxamide monohydrate], CNC(=S)N1CCCC(N2CCC(Nc3nc4ccccc4n3Cc3ccc(F)cc3)CC2)C1 (stereo not drawn) [Compound 37, 4-[[1-[(4-fluorophenyl)methyl]-1H-benzimidazol-2-yl]amino]-N-methyl-[1,3'-bipiperidine]-1'-carbothioamide] is 2-fold lower in ED50: 0.16 mg/kg for the first, 0.08 mg/kg for the second.

Compared with OCc1ccc(CN2CCC(Nc3nc4ccccc4n3Cc3ccc(F)cc3)CC2)o1 [Compound 47, 5-[[4-[[1-[(4-fluorophenyl)methyl]-1H-benzimdazol-2-yl]amino]-1-piperidinyl]methyl]-2-furanmethanol], Fc1ccc(Cn2c(NC3CCN(Cc4ccc(CSCCNc5ncccn5)o4)CC3)nc3ccccc32)cc1 [Compound 50] is 2-fold higher in ED50: 0.08 mg/kg for the first, 0.16 mg/kg for the second.

First: N#CN=C(NCCN1CCOCC1)NCCN1CCC(Nc2nc3ccccc3n2Cc2ccc(F)cc2)CC1 [Compound 26, N"-cyano-N-[2-[4-[[1-[(4-fluorophenyl)methyl]-1H-benzimidazol-2-yl]-aminol]-1-piperidinyl]ethyl]-N'-[2-(4-morpholinyl)ethyl]guanidine monohydrate]
Second: NNC(=S)NCCN1CCC(Nc2nc3ccccc3n2Cc2ccc(F)cc2)CC1.O [Compound 34, N-[2-[4-[[1-[(4-fluorophenyl)methyl]-1H-benzimidazol-2-yl]amino]-1-piperidinyl]ethyl]hydrazinecarbothioamide monohydrate]
The ED50 of the first is 8-fold higher: 0.16 mg/kg for the first, 0.02 mg/kg for the second.

CSC(=NC#N)NCCN1CCC(Nc2nc3cccnc3n2Cc2ccc(F)cc2)CC1 [Compound 21, S-methyl N'-cyano-N-[2-[4-[[3-[(4-fluorophenyl)methyl]-3H-imidazo[4,5-b]pyridin-2-yl]amino]-1-piperidinyl]ethyl]carbamimidothioate] and CCOC(=S)NCCN1CCC(Nc2nc3ccccc3n2Cc2ccc(F)cc2)CC1 [Compound 35, ethyl [2-[4-[[1-[(4-fluorophenyl)-methyl]-1H-benzimidazol-2-yl]amino]-1-piperidinyl]ethyl]carbamothioate] are the same in ED50: 0.16 mg/kg for the first, 0.16 mg/kg for the second.

Compared with COc1ccc(CCN2CCC(Nc3nc4ccccc4n3Cc3cnccn3)CC2)cc1 [Compound 13, N-[1-[2:(4-methoxyphenyl)ethyl]-4-piperidinyl]-1-[(2-pyrazinyl)methyl]-1H-benzimidazol-2-amine], COc1ccc(CCN2CCC(Nc3nc4ccccc4n3Cc3cscn3)CC2)cc1 [Compound 17, N-[1-[2-(4-methoxyphenyl)ethyl]-4-piperidinyl]-1-(4-thiazolyl)-methyl)-1H-benzimidazol-2-amine dihydrobromide. dihydrate] is 2-fold higher in ED50: 0.04 mg/kg for the first, 0.08 mg/kg for the second.

C=COCCN1CCC(Nc2nc3ccccc3n2Cc2ccc(F)cc2)CC1 [Compound 1, N-[1-[2-(ethenyloxy)ethyl]-4-piperidinyl]-1-(4-fluorophenylmethyl)-1H-benzimidazol-2-amine] and O=CNCCN1CCC(Nc2nc3ccccc3n2Cc2ccc(F)cc2)CC1 [Compound 45, N-[2-[4-[[1-[(4-fluorophenyl)methyl]-1H-benzimidazol-2-yl]amino]-1-piperidinyl]ethyl]formamide] are the same in ED50: 0.08 mg/kg for the first, 0.08 mg/kg for the second.

First: CC(=O)Nc1ccccc1C(=O)NCCN1CCC(Nc2nc3ccccc3n2Cc2ccc(F)cc2)CC1 [Compound 51, 2-(acetylamino)-N-[2-[4-[[1-[(4-fluorophenyl)methyl]-1H-benzimidazol-2-yl]amino]-1-piperidinyl]ethyl]benzamide]
Second: CCN(C(C)=O)c1ccccc1C(=O)NCCN1CCC(Nc2nc3ccccc3n2Cc2ccc(F)cc2)CC1 [Compound 52, 2-(acetylethylamino)-N-[2-[4-[[(1-[(4-fluorophenyl)methyl]-1H-benzimidazol-2yl]amino]-1-piperidinyl]ethyl]benzamide (E) -2-butenedioate(1:2)]
The ED50 of the first is 1.9-fold lower: 0.16 mg/kg for the first, 0.31 mg/kg for the second.

Going from COC(CNC(=NC#N)NCCN1CCC(Nc2nc3ccccc3n2Cc2ccc(F)cc2)CC1)OC.O=C(O)/C=C/C(=O)O.O=C(O)/C=C/C(=O)O [Compound 24, N"-cyano-N-(2,2-dimethoxyethyl)-N'-[2-[4-[[1-[(4-fluorophenyl)methyl]-1H-benzimidazol-2-yl]amino]-1-piperidinyl]ethyl]guanidine (E)-2-butenedioate(1:2)] to Cc1nccn1CCN1CCC(Nc2nc3ccccc3n2Cc2ccc(F)cc2)CC1 [Compound 20, 1-[(4-fluorophenyl)methyl]-N-[1-[2-(2-methyl-1H-imidazol-1-yl)ethyl]-4-piperidinyl]-1H-benzimidazol-2-amine], the ED50 rises from 0.16 mg/kg to 0.31 mg/kg (1.9-fold).

Going from O=CNCCN1CCC(Nc2nc3ccccc3n2Cc2ccco2)CC1 [Compound 46, N-[2-[4-[[1-(2-furanylmethyl)-1H-benzimidazol-2-yl]amino]-1-piperidinyl]ethyl]formamide hemihydrate] to Br.Br.Oc1ccc(CCN2CCC(Nc3nc4ccccc4n3Cc3cscn3)CC2)cc1 [Compound 59, 4-[2-[4-[[1-(4-thiazolylmethyl)-1H-benzimidazol-2-yl]amino]-1-piperidinyl]ethyl]phenol dihydrobromide], the ED50 falls from 0.16 mg/kg to 0.08 mg/kg (2-fold).

First: O=c1cc[nH]c(=O)n1CCN1CCC(Nc2nc3ccccc3n2Cc2ccc(F)cc2)CC1 [Compound 5, 3-[2-[4-[[1-[(4-fluorophenyl)methyl]-1H-benzimidazol-2-yl]amino]-1-piperidinyl]ethyl]-2,4-(1H,3H)-pyrimidinedione]
Second: CS(=O)(=O)Nc1ccc(CCN2CCC(Nc3nc4ccccc4n3Cc3ccc(F)cc3)CC2)cc1 [Compound 53, N-4-[2-[4-[[1-[(4-fluorophenyl)methyl]-1H-benzimidazol-2-yl]amino]-1-piperidinyl]ethyl] methanesulfonamide monohydrate]
The ED50 of the first is 2-fold lower: 0.08 mg/kg for the first, 0.16 mg/kg for the second.

From US4588722A, “N-(4-piperidinyl) bicyclic condensed 2-imidazolamine derivatives” (priority 1984, dated 1986)
